Measurements: US20240109865A1, “INDAZOLE COMPOUNDS AS KINASE INHIBITORS” (TYRA BIOSCIENCES, INC., priority 2020, published 2024)

Key:
[1] = biological target: FGFR3-BAIAP2L1 Ba/F3 cells (Homo sapiens, UniProt P22607); assay: Ba/F3 cell viability assay (CellTiter-Glo 2.0), FGFR3-BAIAP2L1 Ba/F3; assay type: cell-based; settings: for Ba/F3 FGFR1/FGFR3 Selectivity: FGFR3 > FGFR1 selectivity ratio in Ba/F3 FGFR fusion cell based assays; for IC50: read-out: Ba/F3 Cells FGFR3 (IC50 nM), FGFR3-BAIAP2L1 Ba/F3 cells, 48 hours, Cell Titer Glo 2.0
Excerpt: (§1) Experimental Purpose: Recombinant kinase fusions are transduced into parental Ba/F3, which becomes dependent upon this constitutive kinase activity for IL3-independent survival. Inhibition of kinase activity leads to cell death, which is monitored using CellTiter-Glo® 2.0 (Promega) which measures intracellular ATP concentration that in turn serves as a marker for viability. FGFR1-BCR Ba/F3 and FGFR3-BAIAP2L1 Ba/F3 were obtained from Advanced Cellular Dynamics (Seattle, WA)
(§2) Cell Viability Assay Procedure: Cell Titer-Glo® 2.0 Luminescent cell viability assay reagent was purchased from Promega (Madison, WI). FGFR1-BCR Ba/F3 and FGFR3-BAIAP2L1 Ba/F3 cells were cultured in RPMI1640 media supplemented with 10% fetal bovine serum. Cultures were maintained at 37° C. in a humidified atmosphere of 5% C02 and 95% air.
(§3) Cells were plated in 96-well clear bottom/white plates (Corning #3903) at 10,000 cells/well in 100 μl of media, incubated overnight. The next day, test compound DMSO stock solutions were made at 10 mM and 2 μM final concentration. Compounds were then added to cells in a 9-dose, 10-fold dilution series starting at 30 μM with an HP 300e Digital Dispenser (each dose was applied in triplicate). DMSO was backfilled to each well up to 301 nL total volume of test compound+DMSO, and a total of 301 nL DMSO was added to a control/no test compound well in triplicate. The cells in cell culture plates were incubated with the compounds at 37° C. and 5% C02 for 48 hours. Then 50 μl of Cell Titer Glo 2.0 reagent was added to each well of the cell culture plates. The contents were covered from light and mixed on an orbital shaker at room temperature for 10 min. Luminescence was recorded by a Synergy H1 Microplate Reader (Biotek, Winooski, VT). Cells were assessed as a percentage of DMSO only treated control cells. Curves were plotted and IC50 values were calculated using the GraphPad Prism 8 program based on a sigmoidal dose-response equation (4 parameter).

[2] = biological target: FGFR1-BCR Ba/F3 cells (Homo sapiens, UniProt P11362); assay: Ba/F3 cell viability assay (CellTiter-Glo 2.0), FGFR1-BCR Ba/F3; assay type: cell-based; settings: read-out: Ba/F3 Cells FGFR1 (IC50 nM), 48 hours, Cell Titer Glo 2.0
Excerpt: as §1, §2, §3

[3] = biological target: FGFR1 (Homo sapiens (Human), UniProt P11362); assay: Kinase assay, binding constants (Kd), kinase-tagged T7 phage, qPCR
Procedure, shortened: (§4)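 Competition binding: T7 phage-tagged kinase + biotin-ligand beads + compound (11 pts, 3-fold, 0.9% DMSO). Elution 30 min RT with free ligand; qPCR quantitation. Kd via Hill fit, slope −1.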

[4] = biological target: FGFR2 (Homo sapiens (Human), UniProt P21802); assay: as above
Procedure, shortened: as §4

[5] = biological target: FGFR3 (Homo sapiens (Human), UniProt P22607); assay: as above
Procedure, shortened: as §4

[6] = biological target: FGFR3 (V555M) (Homo sapiens (Human), UniProt P22607, V555M); assay: as above; settings: V555M mutant
Procedure, shortened: as §4

[7] = biological target: FGFR4 (Homo sapiens (Human), UniProt P22455); assay: as above
Procedure, shortened: as §4

Sequence of FGFR1 (P11362 22-822): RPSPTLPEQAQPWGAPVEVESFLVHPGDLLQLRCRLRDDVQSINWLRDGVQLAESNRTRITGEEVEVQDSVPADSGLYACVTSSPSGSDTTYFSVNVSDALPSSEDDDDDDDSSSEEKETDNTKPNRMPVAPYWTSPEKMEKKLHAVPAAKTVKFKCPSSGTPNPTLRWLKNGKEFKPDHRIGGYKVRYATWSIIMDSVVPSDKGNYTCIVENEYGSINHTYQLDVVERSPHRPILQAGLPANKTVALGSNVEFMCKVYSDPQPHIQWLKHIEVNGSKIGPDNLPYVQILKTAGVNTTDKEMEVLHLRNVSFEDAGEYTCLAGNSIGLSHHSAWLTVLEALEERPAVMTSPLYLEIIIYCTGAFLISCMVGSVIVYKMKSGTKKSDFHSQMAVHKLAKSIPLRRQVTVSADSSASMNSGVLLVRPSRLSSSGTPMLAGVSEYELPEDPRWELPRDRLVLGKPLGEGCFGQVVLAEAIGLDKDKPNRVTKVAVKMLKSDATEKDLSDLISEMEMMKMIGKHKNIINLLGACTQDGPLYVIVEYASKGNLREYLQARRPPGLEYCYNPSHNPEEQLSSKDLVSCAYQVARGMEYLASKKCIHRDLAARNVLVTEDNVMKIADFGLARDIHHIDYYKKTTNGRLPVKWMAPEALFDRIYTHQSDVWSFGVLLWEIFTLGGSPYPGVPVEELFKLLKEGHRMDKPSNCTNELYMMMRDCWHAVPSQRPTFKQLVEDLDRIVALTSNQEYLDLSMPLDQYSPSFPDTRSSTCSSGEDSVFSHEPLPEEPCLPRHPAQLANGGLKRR
Sequence of FGFR1-BCR Ba/F3 cells (P11362 22-822 limits assumed, change not shown): as the sequence (P11362 22-822) above
Sequence of FGFR3-BAIAP2L1 Ba/F3 cells (P22607 23-806 limits assumed, change not shown): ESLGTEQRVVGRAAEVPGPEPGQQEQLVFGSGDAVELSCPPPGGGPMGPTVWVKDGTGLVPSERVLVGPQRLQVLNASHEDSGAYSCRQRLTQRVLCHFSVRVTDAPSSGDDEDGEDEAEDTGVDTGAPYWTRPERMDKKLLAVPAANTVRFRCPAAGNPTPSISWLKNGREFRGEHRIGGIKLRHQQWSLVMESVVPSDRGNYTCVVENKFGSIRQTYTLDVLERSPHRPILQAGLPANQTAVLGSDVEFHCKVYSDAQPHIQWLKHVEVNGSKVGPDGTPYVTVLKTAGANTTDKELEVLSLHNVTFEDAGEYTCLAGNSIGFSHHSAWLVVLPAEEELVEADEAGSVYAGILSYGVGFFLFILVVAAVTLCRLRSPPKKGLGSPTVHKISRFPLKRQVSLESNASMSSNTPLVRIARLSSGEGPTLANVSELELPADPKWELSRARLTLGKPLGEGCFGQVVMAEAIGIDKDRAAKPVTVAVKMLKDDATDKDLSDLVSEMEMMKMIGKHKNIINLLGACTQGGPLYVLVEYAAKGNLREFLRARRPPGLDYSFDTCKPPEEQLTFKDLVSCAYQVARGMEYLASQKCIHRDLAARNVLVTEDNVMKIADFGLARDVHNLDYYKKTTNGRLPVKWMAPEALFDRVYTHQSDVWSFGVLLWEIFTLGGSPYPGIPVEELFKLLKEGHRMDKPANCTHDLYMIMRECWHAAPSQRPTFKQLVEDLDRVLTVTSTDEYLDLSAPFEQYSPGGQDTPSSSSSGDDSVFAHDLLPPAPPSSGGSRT
Sequence of FGFR3 (P22607 23-806): as the sequence (P22607 23-806 limits assumed, change not shown) above
Sequence of FGFR4 (P22455 22-802): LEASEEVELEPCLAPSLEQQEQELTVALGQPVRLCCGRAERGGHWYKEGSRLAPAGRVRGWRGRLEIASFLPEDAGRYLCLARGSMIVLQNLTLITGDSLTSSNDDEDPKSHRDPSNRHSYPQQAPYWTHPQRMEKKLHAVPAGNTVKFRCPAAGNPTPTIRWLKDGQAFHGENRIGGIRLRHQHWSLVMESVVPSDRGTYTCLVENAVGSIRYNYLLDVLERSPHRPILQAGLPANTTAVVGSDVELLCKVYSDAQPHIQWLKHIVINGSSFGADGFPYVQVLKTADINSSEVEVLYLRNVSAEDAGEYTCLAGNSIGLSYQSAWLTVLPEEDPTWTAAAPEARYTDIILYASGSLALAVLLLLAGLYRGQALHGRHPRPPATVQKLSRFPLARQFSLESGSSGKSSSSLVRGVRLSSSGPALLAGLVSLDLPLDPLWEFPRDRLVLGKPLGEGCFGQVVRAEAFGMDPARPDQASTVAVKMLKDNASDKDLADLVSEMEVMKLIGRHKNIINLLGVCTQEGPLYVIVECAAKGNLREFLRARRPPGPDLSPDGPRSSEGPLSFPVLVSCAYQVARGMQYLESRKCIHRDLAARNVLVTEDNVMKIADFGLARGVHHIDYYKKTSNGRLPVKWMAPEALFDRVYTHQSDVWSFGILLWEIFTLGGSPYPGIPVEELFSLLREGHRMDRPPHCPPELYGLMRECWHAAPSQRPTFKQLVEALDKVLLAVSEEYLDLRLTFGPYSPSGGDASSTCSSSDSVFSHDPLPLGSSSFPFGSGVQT
Sequence of FGFR2 (P21802 22-821): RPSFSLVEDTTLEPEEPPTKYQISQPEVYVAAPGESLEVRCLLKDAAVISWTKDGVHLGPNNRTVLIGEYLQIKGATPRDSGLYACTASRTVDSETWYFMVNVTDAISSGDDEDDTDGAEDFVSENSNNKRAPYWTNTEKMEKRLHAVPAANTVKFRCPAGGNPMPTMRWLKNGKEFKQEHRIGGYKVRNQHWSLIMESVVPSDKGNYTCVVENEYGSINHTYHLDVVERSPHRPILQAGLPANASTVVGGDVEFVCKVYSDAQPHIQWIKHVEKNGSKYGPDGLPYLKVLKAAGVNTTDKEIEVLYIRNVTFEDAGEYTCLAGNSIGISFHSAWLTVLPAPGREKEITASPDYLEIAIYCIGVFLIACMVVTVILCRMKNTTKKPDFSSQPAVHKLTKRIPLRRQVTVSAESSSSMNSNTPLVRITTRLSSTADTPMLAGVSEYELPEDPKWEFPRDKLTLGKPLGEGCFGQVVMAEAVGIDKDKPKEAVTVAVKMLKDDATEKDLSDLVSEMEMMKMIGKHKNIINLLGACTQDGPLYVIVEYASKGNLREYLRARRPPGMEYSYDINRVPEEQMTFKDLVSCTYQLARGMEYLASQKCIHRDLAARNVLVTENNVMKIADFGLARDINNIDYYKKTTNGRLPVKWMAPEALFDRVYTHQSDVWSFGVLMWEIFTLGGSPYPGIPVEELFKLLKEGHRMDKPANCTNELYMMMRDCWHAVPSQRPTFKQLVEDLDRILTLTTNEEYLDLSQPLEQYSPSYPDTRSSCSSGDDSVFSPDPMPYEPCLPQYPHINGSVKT
Sequence of FGFR3 (V555M) (P22607 23-806 V555M): as the sequence (P22607 23-806 limits assumed, change not shown) above, with V533M counted along it

| SMILES | Ba/F3 FGFR1/FGFR3 Selectivity [1] | IC50 [1] [nM] | IC50 [2] [nM] | Kd [3] [nM] | Kd [4] [nM] | Kd [5] [nM] | Kd [6] [nM] | Kd [7] [nM] |
| --- | --- | --- | --- | --- | --- | --- | --- | --- |
| C[C@@H](Oc1ccc2[nH]nc(-c3cnc(N4CCC5(CCC(=O)N5C)CC4)c(F)c3)c2c1)c1c(Cl)cncc1Cl [Example 43, 8-[5-[5-[(1R)-1-(3,5-dichloro-4-pyridyl)ethoxy]-1H-indazol-3-yl]-3-fluoro-2-pyridyl]-1-methyl-1,8-diazaspiro[4.5]decan-2-one] | 10 | 1 to 20 | 20 to 100 | 1 to 20 | 1 to 20 | 1 to 20 | 1 to 20 | 1 to 20 |
| C[C@@H](Oc1ccc2[nH]nc(-c3cnc(N4CCC5(CC4)C(=O)NCCN5C)c(F)c3)c2c1)c1c(Cl)cncc1Cl [Example 44, 9-[5-[5-[(1R)-1-(3,5-dichloro-4-pyridyl)ethoxy]-1H-indazol-3-yl]-3-fluoro-2-pyridyl]-1-methyl-1,4,9-triazaspiro[5.5]undecan-5-one] | – | 1 to 20 | 20 to 100 | 1 to 20 | 1 to 20 | 1 to 20 | 1 to 20 | 1 to 20 |
| C[C@@H](Oc1ccc2[nH]nc(-c3cnc(N4CCC5(CC4)CNC(=O)N5)nc3)c2c1)c1c(Cl)cncc1Cl [Example 53, 8-[5-[5-[(1R)-1-(3,5-dichloro-4-pyridyl)ethoxy]-1H-indazol-3-yl]pyrimidin-2-yl]-1,3,8-triazaspiro-[4.5]decan-2-one] | 11 | 20 to 100 | 100 to 300 | 20 to 100 | 20 to 100 | 1 to 20 | 1 to 20 | 1 to 20 |
| C[C@@H](Oc1ccc2[nH]nc(-c3cnc(N4CCC5(CCNC5=O)CC4)nc3)c2c1)c1c(Cl)cncc1Cl [Example 55, 8-[5-[5-[(1R)-1-(3,5-dichloro-4-pyridyl)ethoxy]-1H-indazol-3-yl]pyrimidin-2-yl]-2,8-diazaspiro-[4.5]decan-1-one] | 16 | 20 to 100 | > 300 | 20 to 100 | 20 to 100 | 1 to 20 | 1 to 20 | 1 to 20 |
| C[C@@H](Oc1ccc2[nH]nc(-c3cnc(N4CCC5(CCCN5)CC4)nc3)c2c1)c1c(Cl)cncc1Cl [Example 56, 8-[5-[5-[(1R)-1-(3,5-dichloro-4-pyridyl)ethoxy]-1H-indazol-3-yl]pyrimidin-2-yl]-1,8-diazaspiro[4.5]decane] | 5 | 20 to 100 | > 300 | 1 to 20 | 20 to 100 | 1 to 20 | 1 to 20 | 1 to 20 |
| C[C@@H](Oc1ccc2[nH]nc(-c3cnc(N4CCC5(CC4)CCS(=O)(=O)C5)nc3)c2c1)c1c(Cl)cncc1Cl [Example 57, 8-[5-[5-[(1R)-1-(3,5-dichloro-4-pyridyl)ethoxy]-1H-indazol-3-yl]pyrimidin-2-yl]-2λ^6-thia-8-azaspiro[4.5]decane 2,2-dioxide] | 15 | 1 to 20 | 100 to 300 | 20 to 100 | 20 to 100 | 1 to 20 | 1 to 20 | 1 to 20 |
| C[C@@H](Oc1ccc2[nH]nc(-c3cnc(N4CCC5(CC4)C(=O)NCCN5C)nc3)c2c1)c1c(Cl)cncc1Cl [Example 58, 9-[5-[5-[(1R)-1-(3,5-dichloro-4-pyridyl)ethoxy]-1H-indazol-3-yl]pyrimidin-2-yl]-1-methyl-1,4,9-triazaspiro[5.5]undecan-5-one] | 11 | 20 to 100 | 100 to 300 | 20 to 100 | 20 to 100 | 1 to 20 | 1 to 20 | 1 to 20 |
| C[C@@H](Oc1ccc2[nH]nc(-c3cnc(N4CCCN(C(N)=O)CC4)nc3)c2c1)c1c(Cl)cncc1Cl [Example 62, 4-[5-[5-[(1R)-1-(3,5-Dichloro-4-pyridyl)ethoxy]-1H-indazol-3-yl]pyrimidin-2-yl]-1,4-diazepane-1-carboxamide] | 8 | 20 to 100 | > 300 | 20 to 100 | 20 to 100 | 1 to 20 | 1 to 20 | 1 to 20 |
| C[C@@H](Oc1ccc2[nH]nc(-c3cnc(N4CCCN(S(C)(=O)=O)CC4)nc3)c2c1)c1c(Cl)cncc1Cl [Example 63, 5-[(1R)-1-(3,5-Dichloro-4-pyridyl)ethoxy]-3-[2-(4-methylsulfonyl-1,4-diazepan-1-yl)pyrimidin-5-yl]-1H-indazole] | 16 | 20 to 100 | > 300 | 20 to 100 | 20 to 100 | 1 to 20 | 1 to 20 | 1 to 20 |
| C[C@@H](Oc1ccc2[nH]nc(-c3cnn(C4CCNCC4)c3)c2c1)c1c(Cl)cncc1Cl [Example 64, 5-[(1R)-1-(3,5-dichloro-4-pyridyl)ethoxy]-3-[1-(4-piperidyl)pyrazol-4-yl]-1H-indazole] | 16 | 1 to 20 | 100 to 300 | 1 to 20 | 1 to 20 | 1 to 20 | 1 to 20 | 1 to 20 |
| C[C@@H](Oc1ccc2[nH]nc(-c3cnn(C4CCN(C(=O)N(C)C)CC4)c3)c2c1)c1c(Cl)cncc1Cl [Example 67, 4-[4-[5-[(1R)-1-(3,5-dichloro-4-pyridyl)ethoxy]-1H-indazol-3-yl]pyrazol-1-yl]-N,N-dimethyl-piperidine-1-carboxamide] | 12 | 1 to 20 | 20 to 100 | 1 to 20 | 1 to 20 | 1 to 20 | 1 to 20 | 1 to 20 |
| C[C@@H](Oc1ccc2[nH]nc(-c3cnn(C4CCN(C(N)=O)CC4)c3)c2c1)c1c(Cl)cncc1Cl [Example 68, 4-[4-[5-[(1R)-1-(3,5-dichloro-4-pyridyl)ethoxy]-1H-indazol-3-yl]pyrazol-1-yl]piperidine-1-carboxamide] | – | 1 to 20 | 100 to 300 | 1 to 20 | 1 to 20 | 1 to 20 | 1 to 20 | 1 to 20 |
| C[C@@H](Oc1ccc2[nH]nc(-c3ccc(C4CCN(S(C)(=O)=O)CC4)nc3)c2c1)c1c(Cl)cncc1Cl [Example 70, 5-[(1R)-1-(3,5-dichloro-4-pyridyl)ethoxy]-3-[6-(1-methylsulfonyl-4-piperidyl)-3-pyridyl]-1H-indazole] | 20 | 1 to 20 | 20 to 100 | 1 to 20 | 1 to 20 | 1 to 20 | 1 to 20 | 1 to 20 |
| C[C@@H](Oc1ccc2[nH]nc(-c3ccc(C4CCN(C(=O)N(C)C)CC4)nc3)c2c1)c1c(Cl)cncc1Cl [Example 71, 4-[5-[5-[(1R)-1-(3,5-dichloro-4-pyridyl)ethoxy]-1H-indazol-3-yl]-2-pyridyl]-N,N-dimethyl-piperidine-1-carboxamide] | 15 | 1 to 20 | 20 to 100 | 1 to 20 | 1 to 20 | 1 to 20 | 1 to 20 | 1 to 20 |
| C[C@@H](Oc1ccc2[nH]nc(-c3ccc(C4CCN(C(N)=O)CC4)nc3)c2c1)c1c(Cl)cncc1Cl [Example 72, 4-[5-[5-[(1R)-1-(3,5-dichloro-4-pyridyl)ethoxy]-1H-indazol-3-yl]-2-pyridyl]piperidine-1-carboxamide] | 15 | 1 to 20 | 20 to 100 | 1 to 20 | 1 to 20 | 1 to 20 | 1 to 20 | 1 to 20 |
